{"source": "patent US8691761B2", "about": "“Somatostatin receptor 2 antagonists” (priority 2006, dated 2014)", "key": {"sst2 [1]": {"molecular_target": "T1, sst2 (Homo sapiens, UniProt P30874)", "settings": "cited from earlier work"}, "sst3": {"molecular_target": "sst3 (Homo sapiens, UniProt P32745)", "sequence (P32745 whole entry, species assumed)": "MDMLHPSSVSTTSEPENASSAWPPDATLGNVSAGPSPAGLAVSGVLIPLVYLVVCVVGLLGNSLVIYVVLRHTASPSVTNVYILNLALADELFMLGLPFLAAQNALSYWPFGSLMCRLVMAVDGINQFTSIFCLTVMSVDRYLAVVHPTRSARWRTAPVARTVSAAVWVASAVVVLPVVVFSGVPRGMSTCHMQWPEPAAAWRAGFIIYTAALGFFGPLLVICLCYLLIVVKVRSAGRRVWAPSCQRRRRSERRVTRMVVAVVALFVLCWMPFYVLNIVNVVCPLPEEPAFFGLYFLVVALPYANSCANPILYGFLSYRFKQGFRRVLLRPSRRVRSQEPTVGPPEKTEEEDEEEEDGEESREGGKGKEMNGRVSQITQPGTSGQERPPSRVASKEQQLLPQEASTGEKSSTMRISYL", "settings": "literature value compared with own IC50; read-out: reported value at sst3 (Hocart et al.); cited from earlier work"}, "human sst2A receptor": {"molecular_target": "T2, human sst2A receptor (Homo sapiens, UniProt P30874)", "T2 construct": "expressed in transfected cells; host or cells: HEK293 (HEK-sst2)", "T2 sequence (P30874 whole entry)": "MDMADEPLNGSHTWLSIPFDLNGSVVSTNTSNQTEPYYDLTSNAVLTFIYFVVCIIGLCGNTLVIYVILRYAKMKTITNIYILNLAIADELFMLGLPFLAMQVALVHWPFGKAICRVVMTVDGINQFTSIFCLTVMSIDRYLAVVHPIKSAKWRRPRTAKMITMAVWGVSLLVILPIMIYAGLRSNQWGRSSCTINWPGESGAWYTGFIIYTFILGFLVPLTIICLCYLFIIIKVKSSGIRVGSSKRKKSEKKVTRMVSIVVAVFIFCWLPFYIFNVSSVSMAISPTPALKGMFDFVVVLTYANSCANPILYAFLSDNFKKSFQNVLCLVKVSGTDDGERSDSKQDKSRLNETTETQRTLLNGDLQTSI", "test": "Immunofluorescence-based sst2 internalization assay in HEK-sst2 cells", "format": "cell-based", "settings": "n ≧ 2", "outline": "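HEK-sst2 cells treated with vehicle, 100 nM [Tyr^3]-octreotide, octreotide plus 100-fold excess test analogue, or test analogue alone at 10 μM. Receptor internalization visualized by immunofluorescence microscopy with sst2-specific antibody R2-88.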"}, "sst2 [2]": {"molecular_target": "T1, sst2", "test": "Calcium release assay in HEK-sst2 cells (Fluo-4NW)", "format": "cell-based", "parameters": "expressed in transfected cells; host or cells: HEK293 (HEK-sst2)", "settings": "n ≧ 2"}, "[3]": {"molecular_target": "T7-epitope-tagged human sst2 (Homo sapiens, UniProt P30874)", "sequence (P30874 whole entry)": "as above", "test": "Quantitative assay for sst2 internalization (ELISA) in HEK-sst2 cells", "format": "cell-based", "settings": "FIG. 3", "method": "Quantitative assay for sst2 internalization (ELISA) Receptor internalization was determined using an ELISA to quantitate T7-epitope-tagged human sst2 on the cell surface. HEK-sst2 cells were seeded on poly-D-lysine (20 μg/mL) coated 24-well plates (250,000 cells per well) in growth medium and cultured for 1 day at 37° C. and 5% CO2. […] After washing with DMEM-LH to remove unbound antibody, cells were incubated for 30 min at 37° C. and 5% CO2 either without or with the ligands added at the concentrations indicated. Incubations were terminated by placing the plates in an ice bath. Cells were then washed twice with cold PBS and fixed for 10 min at room temperature with 3% paraformaldehyde in PBS (pH 7.4). […] After 3 additional washes with PBS, antibody binding was measured by adding 0.3 mL substrate mix for horseradish peroxidase (ABTS). The OD405 was measured after an approximately 30 min incubation at room temperature. The amount of sst2 remaining at the cell surface after ligand treatment was calculated as the absorbance measured in treated cells expressed as a percentage of the absorbance in untreated cells. Nonspecific absorbance was determined in experiments in which HEK293-sst2 cells were incubated without the anti-T7 antibody. […]"}, "HEK-sst2 tumors": {"tested_on": "HEK-sst2 tumors", "test": "In vivo biodistribution of radiolabeled peptides in nude mice bearing HEK-sst2 tumors", "settings": "mouse, in vivo", "method": "The following protocol was used to determine biodistribution\nConfirmation that the transfected tumors were indeed expressing solely sst2 was obtained in resected tumor samples tested in vitro with somatostatin receptor autoradiography using subtype selective ligands.\nThe biodistribution of was studied at 4 h or 24 h after injection. The organs of interest were collected, blotted dry, weighed, their radioactivity measured and the percentage of injected activity per gram (% IA/g) calculated."}, "hSSTR3": {"molecular_target": "T3, hSSTR3 (Homo sapiens, UniProt P32745)", "T3 construct": "expressed in transfected cells; host or cells: CHO-K1 or CCL39 cells", "T3 sequence (P32745 whole entry)": "as the sequence (P32745 whole entry, species assumed) above", "test": "Receptor autoradiography, displacement of 125I-[Leu8,D-Trp22,Tyr25]-SRIF-28 from membrane pellet sections", "format": "binding", "settings": "Table 3; mean ± SEM when N ≧ 3; read-out: sst3 binding affinity (IC50)"}, "hSSTR1": {"molecular_target": "T4, hSSTR1 (Homo sapiens, UniProt P30872)", "T4 construct": "expressed in transfected cells; host or cells: CHO-K1 or CCL39 cells", "T4 sequence (P30872 whole entry)": "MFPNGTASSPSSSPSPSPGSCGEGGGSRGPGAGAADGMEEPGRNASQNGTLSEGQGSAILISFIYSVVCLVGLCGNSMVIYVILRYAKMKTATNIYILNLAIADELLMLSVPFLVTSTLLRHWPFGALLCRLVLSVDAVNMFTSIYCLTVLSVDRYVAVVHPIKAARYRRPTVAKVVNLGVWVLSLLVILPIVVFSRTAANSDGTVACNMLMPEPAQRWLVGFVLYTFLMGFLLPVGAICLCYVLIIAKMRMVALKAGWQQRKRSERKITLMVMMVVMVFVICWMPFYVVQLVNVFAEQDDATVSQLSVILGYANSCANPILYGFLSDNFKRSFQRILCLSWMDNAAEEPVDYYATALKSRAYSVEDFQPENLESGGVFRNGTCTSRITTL", "test": "Receptor autoradiography, displacement of 125I-[Leu8,D-Trp22,Tyr25]-SRIF-28 from membrane pellet sections", "format": "binding", "settings": "Table 3; mean ± SEM when N ≧ 3; read-out: sst1 binding affinity (IC50)"}, "hSSTR4": {"molecular_target": "T5, hSSTR4 (Homo sapiens, UniProt P31391)", "T5 construct": "expressed in transfected cells; host or cells: CHO-K1 or CCL39 cells", "T5 sequence (P31391 whole entry)": "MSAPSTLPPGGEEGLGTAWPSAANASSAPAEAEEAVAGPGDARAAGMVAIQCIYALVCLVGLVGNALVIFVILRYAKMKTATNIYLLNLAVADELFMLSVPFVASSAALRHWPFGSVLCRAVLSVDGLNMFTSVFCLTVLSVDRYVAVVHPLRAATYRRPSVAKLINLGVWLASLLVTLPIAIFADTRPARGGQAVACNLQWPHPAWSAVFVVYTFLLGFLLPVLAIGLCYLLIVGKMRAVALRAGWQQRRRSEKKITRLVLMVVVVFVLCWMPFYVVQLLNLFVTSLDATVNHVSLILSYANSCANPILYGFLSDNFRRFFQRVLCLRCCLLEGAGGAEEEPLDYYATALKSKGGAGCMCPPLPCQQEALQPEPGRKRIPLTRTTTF", "test": "Receptor autoradiography, displacement of 125I-[Leu8,D-Trp22,Tyr25]-SRIF-28 from membrane pellet sections", "format": "binding", "settings": "Table 3; mean ± SEM when N ≧ 3; read-out: sst4 binding affinity (IC50)"}, "hSSTR2": {"molecular_target": "T6, hSSTR2 (Homo sapiens, UniProt P30874)", "T6 construct": "expressed in transfected cells; host or cells: CHO-K1 or CCL39 cells", "T6 sequence (P30874 whole entry)": "as the sequence (P30874 whole entry) above", "test": "Receptor autoradiography, displacement of 125I-[Leu8,D-Trp22,Tyr25]-SRIF-28 from membrane pellet sections", "format": "binding", "settings": "Table 3; mean ± SEM when N ≧ 3; read-out: sst2 binding affinity (IC50)"}}, "note": "Entries after “also recorded” stand apart in the source; their conditions may differ. Bridge positions count the residues as written; N and C are the ends. Square brackets hold non-standard residues; d marks the D form. Peptide text beside a SMILES is read from it. Phe(4-Cl) = N[C@@H](Cc1ccc(Cl)cc1)C(=O)O; 2Nal = N[C@@H](Cc1ccc2ccccc2c1)C(=O)O; NMeK = CN[C@@H](CCCCN)C(=O)O"}
{"smiles": "C[C@@H](O)[C@@H]1NC(=O)[C@H](CCCCN)NC(=O)[C@@H](Cc2c[nH]c3ccccc23)NC(=O)[C@H](Cc2ccc(O)cc2)NC(=O)[C@H](NC(=O)[C@@H](N)Cc2ccc(Cl)cc2)CSSC[C@@H](C(=O)N[C@@H](Cc2ccc3ccccc3c2)C(N)=O)NC1=O", "note": "[compound 7, H2N-Cpa-c[DCys-Tyr-DTrp-Lys-Thr-Cys]-2Nal-NH2, reference compound] (H-[Phe(4-Cl)][dC]Y[dW]KTC[2Nal]-NH2; disulfide 2-7)", "values": [{"measurement": "IC50", "setting": "sst2 [1]; literature value compared with own IC50, read-out: reported value at sst2 (Hocart et al.)", "result": 26, "unit": "nM"}, {"measurement": "IC50", "setting": "sst3", "result": 93, "unit": "nM"}, {"measurement": "sst2-internalization tested in vitro in HEK-sst2 cells (function)", "setting": "human sst2A receptor", "result": "Antagonist"}, {"measurement": "Calcium release tested in vitro in HEK-sst2 cells (function)", "setting": "sst2 [2]", "result": "Antagonist"}]}
{"smiles": "C[C@@H](O)[C@@H]1NC(=O)[C@H](CCCCN)NC(=O)[C@@H](Cc2c[nH]c3ccccc23)NC(=O)[C@H](Cc2ccc(O)c(I)c2)NC(=O)[C@H](NC(=O)[C@H](Cc2ccc([N+](=O)[O-])cc2)NC(=O)CN2CCN(CC(=O)O)CCN(CC(=O)O)CCN(CC(=O)O)CC2)CSSC[C@@H](C(=O)N[C@H](Cc2ccc(O)cc2)C(N)=O)NC1=O", "note": "[Peptide No. 32, DOTA-pNO2Phe-c[DCys-ITyr-DTrp-Lys-Thr-Cys]-DTyr-NH2]", "values": [{"measurement": "function in the ELISA internalization assay", "setting": "[3]", "result": "antagonistic properties"}, {"measurement": "sst2-internalization tested in vitro in HEK-sst2 cells (function)", "setting": "human sst2A receptor", "result": "antagonistic property; also recorded: Antagonist"}, {"measurement": "Calcium release tested in vitro in HEK-sst2 cells (function)", "setting": "sst2 [2]", "result": "Antagonist"}, {"measurement": "tumor to kidney ratio (in words)", "setting": "HEK-sst2 tumors", "result": "excellent tumor to kidney ratio"}]}
{"smiles": "C[C@@H](O)[C@@H]1NC(=O)[C@H](CCCCN)N(C)C(=O)[C@@H](Cc2c[nH]c3ccccc23)NC(=O)[C@H](Cc2ccc(O)cc2)NC(=O)[C@H](NC(=O)[C@@H](N)Cc2ccc(Cl)cc2)CSSC[C@@H](C(=O)N[C@@H](Cc2ccc3ccccc3c2)C(N)=O)NC1=O", "note": "[compound 8, H2N-Cpa-c[DCys-Tyr-DTrp-NMeLys-Thr-Cys]-2Nal-NH2, reference compound] (H-[Phe(4-Cl)][dC]Y[dW][NMeK]TC[2Nal]-NH2; disulfide 2-7)", "values": [{"measurement": "increase of binding affinity at sst2 versus 7 in Hocart et al. assay", "setting": "sst2 [1]", "result": 5, "unit": "fold"}, {"measurement": "IC50", "setting": "hSSTR3", "result": "61 ± 14", "unit": "nM"}, {"measurement": "IC50", "setting": "hSSTR1", "result": "> 1000", "unit": "nM"}, {"measurement": "IC50", "setting": "hSSTR4", "result": "715 ± 137", "unit": "nM"}, {"measurement": "IC50", "setting": "hSSTR2", "result": "10 ± 3.5", "unit": "nM"}, {"measurement": "sst2-internalization tested in vitro in HEK-sst2 cells (function)", "setting": "human sst2A receptor", "result": "Antagonist"}, {"measurement": "Calcium release tested in vitro in HEK-sst2 cells (function)", "setting": "sst2 [2]", "result": "Antagonist"}]}
